In patent US6251898A, “Medical use of fluorenone derivatives for treating and preventing brain and spinal injury” (Questcor Pharmaceuticals, Inc., priority 1999, dated 2001):

System: UC11-MG human astrocytoma cells
Assay: D-aspartate (excitotoxin) release by hypo-osmotically stressed astrocytoma cells
Type: cell-based
Description: The in vitro tests described in this example used UC11-MG human astrocytoma cells, obtained from the University of Cincinnati, and described in Liwnicz et al 1986 and Lomneth et al 1989. Cell culture reagents (including RPMI 1640, fetal bovine serum, trypsin, and gentamicin) were obtained from Gibco (Gaithersburg, Md.). Radiolabelled D-[2,3-^3 H]aspartate was obtained from Amersham Life Sciences (Buckinghamshire, England). ScintiVerse II scintillation fluid was obtained from Fisher Scientific (Pittsburgh, Pa.). All other chemicals were obtained from Sigma Chemical Co. (St. Louis, Mo.). Osmolarities of solutions were measured using the Advance DigiMatic Osmometer Model 3D II (Advanced Instruments Inc., Mass.).
The UC11-MG astrocytoma cells were cultured in 75 ml vented flasks at 37° C. inside a humidified incubator in 5% CO2 /95% air. The cells were grown in RPMI Medium 1640 supplemented with 10% fetal bovine serum and […] gentamicin. At approximately 90% confluence, the cells were detached and suspended using a 0.0625% trypsin solution in Buffer A (137 mM NaCl, 5.37 mM KCl, 5.55 mM glucose, 4.17 mM NaHCO3, and 0.54 mM EDTA disodium salt, pH 7.4). The cells were then plated onto 6-well tissue culture plates at a seeding ratio of 4 plates per flask and 4 ml of cell-media suspension per well. The plated cells were used in experiments the next day at approximately 90% confluence. Plates that appeared to be more than 95% confluent were not used, because higher levels of confluence led to uncontrollable differentials in exposure of the cells to culture media and labelled aspartate. All tests were performed in triplicate. All media collections were done at 5 minute intervals, using pipettes, and were followed by promptly loading fresh buffer into each well before any drying occurred. All buffer samples collected in this manner were loaded into scintillation vials, mixed with 5 ml scintillation fluid, and counted for 1 minute in a scintillation counter (Beckman LS8000, Fullerton, Calif.).
Prior to D-aspartate exposure, the wells were washed three times under sterile conditions with 3 ml of 37° C. Buffer B (122 mM NaCl, 3.3 mM KCl, 1.2 mM CaCl2, 0.4 mM MgSO4, 1.2 mM KH2 PO4, 25 mM Hepes, 10 mM glucose, pH 7.4).
The cells were then loaded with 0.5 μCi/ml of D-aspartate, and incubated at 37° C. for 30 min. Cells were then washed four times with Buffer B, and the last washing fluid was left on the cells. The plates were then placed on an orbital shaker and maintained at 37° C.
Baseline aspartate release levels (prior to drug treatment) were determined by incubating the cells with normal Buffer B (285 mOsm) for 15 minutes, while buffer was collected every 5 minutes.
After the buffer was collected from a well at the 15 minute mark, the next set of normal Buffer B added to that well contained a test compound at a known concentration; each compound was tested over a range of concentrations. Cells were then incubated for two 5 minute intervals with solutions of test compounds in normal Buffer B. In some tests which used buffers containing relatively high concentrations of a test drug with limited solubility in water, DMSO was added to the mixture to increase the solubility of the compound in water.
Beginning at the 25-minute mark, the cells were stimulated to begin releasing aspartate by loading a well with hypo-osmotic buffer, prepared by diluting Buffer B with an equal volume of distilled and deionized H2 O, resulting in an osmolarity of about 145 mOsm. This hypo-osmoticsolution caused the cells to begin taking in excess water, to try to reestablish the normal osmotic gradients that exist across the cell membranes. The water-induced swelling and stress then began to induce release of aspartate by the cells, and the amount of aspartate released by the swollen astrocyte cells was measured by removing the buffer every 5 minutes and testing it in a scintillation counter.

## CCC[C@]12CCC(=O)C=C1c1c(cc(OCC3=NCCO3)c(Cl)c1Cl)C2 [GERI-E7, R(+)-2-[[(5,6-dichloro-2,3,9,9a-tetrahydro-3-oxo-9a-propyl-1H-fluoren-7-yl)-oxy]methyl]oxazoline]
Homo sapiens, UC11MG, hypo-osmotic stress, about 145 mOsm, AUC-based, read-out: IC50 value (suppression of excitotoxin / D-aspartate release by stressed astrocyte cells)
  IC50: 8.5 µM
Relative to L-644,711 (100% = benchmark)
  Comparative potency: 3,100%
